The values below are quoted from earlier work in patent US4758437A, “Composition for long acting nicardipine preparation and process of producing the composition” (Yamanouchi Pharmaceutical Co., Ltd., priority 1987, dated 1988).

The structures appear in SMILES notation.

Take `COC(=O)C1=C(C)NC(C)=C(C(=O)OCCN(C)Cc2ccccc2)C1c1cccc([N+](=O)[O-])c1` (stereo not drawn) [nicardipine, 2,6-dimethyl-4-(3'-nitrophenyl)-1,4-dihydropyridine-3,5-dicarboxylic acid-3-methyl ester-5-β-(N-benzyl-N-methylamino)-ethyl ester]: the “solubility in the first fluid of Japanese Pharmacopeia IX” value (about pH 1.2, nicardipine or its salt) is given as “good solubility”. Besides, the “solubility in the second fluid of Japanese Pharmacopeia IX” value (about pH 7.5) was “sparingly soluble”. Further, the “solubility in intestinal juice” value (intestinal juice) is “practically insoluble”.
